Results taken from patent US20250262206A1, “USE OF TACHYKININ RECEPTOR 3 INHIBITÓR” (WUHAN UNIVERSITY, priority 2021, published 2025).
Read-outs that look alike come from different tables or passages of the source.

Assays:
[1] = system: Yki activated Drosophila (intestinal tumors); experiment: Drosophila ascites caused by yki intestinal tumors; assay type: in vivo; details: 100 μM in food, yki intestinal tumor Drosophila, 6 days / 8 days
Description: Overexpression of the activated proto-oncogene yki in Drosophila intestinal stem cells can lead to malignant proliferation of intestinal stem cells, and then the formation of tumors. The formation of tumors seriously damages the secretory function of Drosophila Malpighian tubules, leading to the inability of circulating water in the Drosophila hemolymph to be drained out of the body, and the emergence of a severe ascites phenotype. Methods: Activated yki tumors (genotypes esg-Gal4, UAS-GFP, tub-Gal80TS/+; UAS-yki3SA/+) were induced in the Drosophila intestine by initiating gene expression at 29° C. Drosophilas were fed with food supplemented with DMSO, Fezolinetant (10 μM, 100 μM), and Pavinetant (10 μM, 100 μM), […], and compared with the control group (esg-Gal4, UAS-GFP, tub-Gal80TS/+), to observe phenotypes, detect intestinal tumor growth and systemic glycolipid changes, and count ascites ratios.

[2] = system: hot flashes in postmenopausal women; details: Phase 2 clinical trials; cited from earlier work
[3] = system: C57BL/6J-APCMin/+ mice; experiment: Kidney damage caused by intestinal adenoma in C57BL/6J-APCMin/+ mice; assay type: in vivo, mouse; details: 10 mg/kg/day intraperitoneal, 9 days
Procedure: C57BL/6J-APCMin/+ mice are a mature mammalian intestinal adenoma model and are commonly used to study host consumption caused by tumors.
Methods: Male mice of C57BL/6J in the control group and C57BL/6J-APCMin/+ in the experimental group (7 mice in each group) were fed to 16 weeks of age under normal feeding conditions. When the mice in the experimental group began to lose weight, they were injected intraperitoneally with Fezolinetant (0, 10 mg/kg/day) for 9 consecutive days, and the body weight and urine output were measured, and the kidneys were stained to observe the tubular morphology.

[4] = target: cytochrome P450-3A4 (Homo sapiens, UniProt P08684); details: cited from earlier work
Chain of cytochrome P450-3A4 (P08684 whole entry): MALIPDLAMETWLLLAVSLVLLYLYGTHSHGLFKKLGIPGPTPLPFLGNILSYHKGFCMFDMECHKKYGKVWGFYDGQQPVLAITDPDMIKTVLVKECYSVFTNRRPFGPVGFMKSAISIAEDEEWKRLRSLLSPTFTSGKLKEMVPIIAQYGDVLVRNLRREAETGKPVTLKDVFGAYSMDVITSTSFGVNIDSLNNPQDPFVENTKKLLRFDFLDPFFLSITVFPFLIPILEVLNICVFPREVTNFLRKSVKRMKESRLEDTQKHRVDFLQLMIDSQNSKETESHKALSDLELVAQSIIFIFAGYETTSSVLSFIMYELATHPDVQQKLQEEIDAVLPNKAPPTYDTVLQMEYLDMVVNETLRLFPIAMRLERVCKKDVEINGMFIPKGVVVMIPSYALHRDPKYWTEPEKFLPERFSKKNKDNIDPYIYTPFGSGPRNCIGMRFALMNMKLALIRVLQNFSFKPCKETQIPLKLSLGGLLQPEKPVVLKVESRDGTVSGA

[5] = system: MFC tumor mice (C57BL/6J); experiment: Ascites and kidney damage caused by MFC forestomach cancer cells in mice; assay type: in vivo, mouse; details: 50 mg/kg/day intraperitoneal, 5 days
Procedure: MFC tumor (Mouse forestomach carcinoma), a common tumor that may cause ascites, colonizes the peritoneal cavity of mice. With their growth, the tumors may cause severe ascites accumulation and renal tubular damage in mice. Methods: C57BL/6J male mice, 4-6 weeks old. C57BL/6J mice in experimental group (6 mice in each group) were intraperitoneally injected with 1.5×10^7 MFC tumor cells, and 24 hours later, intraperitoneally injected with the inhibitor Pavinetant (0, 10, 50 mg/kg/day), and after 5 days of continuous administration, they were compared with the control group C57BL/6 (6 mice in each group). The body weight, ascites, and urine output were detected, and the kidneys were stained to observe the tubular morphology.

[6] = system: polycystic ovary syndrome; details: Phase 2 clinical trials; cited from earlier work

| SMILES | ascites in Drosophila [1] | blood glucose in Drosophila [1] | effect on hot flashes [2] | renal tubular damage (HE staining, tubular dilatation) [3] | urine output [3] | IC50 ([4]; midazolam, read-out: in vitro inhibitory IC50, cytochrome P450-3A4 enzyme activity, midazolam testing) [µM] | IC50 ([4]; testosterone, read-out: in vitro inhibitory IC50, cytochrome P450-3A4 enzyme activity, testosterone testing) [µM] | generation of ascites [5] | renal tubular lesions (renal tubular dilation) [5] | effect on polycystic ovary syndrome [6] |
| --- | --- | --- | --- | --- | --- | --- | --- | --- | --- | --- |
| Cc1nsc(-c2nnc3n2CCN(C(=O)c2ccc(F)cc2)[C@@H]3C)n1 [Fezolinetant] | significantly reduce | normalize | significant improvement effect | significantly restored | significantly restored |  |  |  |  |  |
| CC[C@H](NC(=O)c1c(NS(C)(=O)=O)c(-c2ccccc2)nc2ccccc12)c1ccccc1 [Pavinetant] | significantly reduce | normalize | significantly improves |  |  | 7.1 | 19.8 | significantly inhibit | alleviate | significantly improves |
